Columns and labels:
Assay type in all cases: in vivo
[1] = tested on: Tobacco Budworm [Heliothis virescens (Fabricius)] eggs; test: Tobacco budworm egg test (TBW-E); conditions: percent in solution
[2] = tested on: Cabbage Looper [Trichoplusia ni (Hubner)]; test: Cabbage looper test (CL); conditions: second-instar larvae, 3-5 days, percent in solution
[3] = tested on: Housefly [Musca domestica]; test: Housefly insecticidal test (HF); conditions: per 25 female houseflies, 48 hours
[4] = tested on: Maize weevil [Sitophilus Zeamais (Motschulsky)]; test: Maize weevil test (MW); conditions: adult weevils, treated corn seeds, 48 hours, percent in solution
Outline: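 Adult weevils (10) were placed with four corn seeds that had been dipped 2-3 s in compound dissolved in 50:50 acetone:water, then dried, and held at about 25° C. Mortality was scored at 48 h. LC50 was taken from dosage-mortality curves and expressed as percent compound in solution, from a 0.01% top concentration.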

[5] = tested on: Tobacco Budworm [Heliothis virescens (Fabricius)]; test: Tobacco budworm contact test (TBW-C); conditions: second-instar larvae, 5 days, percent in solution
Method: The compounds in Tables 1 and 2 above were tested for insecticidal activity using the following testing procedures. LC50 values, based on the results of these tests and calculated according to dosage-mortality curves, are expressed in Table 3.
Tobacco Budworm [Heliothis virescens (Fabricius)]
(a) Contact: Test compounds were diluted in a 50-50 acetonewater solution. Cotton (Gossypium sp.) cotyledons were immersed in the test solutions for 2-3 seconds and placed on a wire screen to dry. The dried leaves were placed in petri dishes containing a moistened piece of filter paper and infested with 5 second-instar tobacco budworm larvae. The dishes were placed in a high humidity chamber for 5 days, and percent mortality of the larvae recorded. Test concentrations ranged from 0.1% downward. The LC-50 values are expressed below in Table 3 under the heading "TBW-C" in terms of percent of the test compound in the solution.

[6] = tested on: Aster Leafhopper [Macrosteles fascifrens (Stal)]; test: Aster leafhopper test (LH); conditions: adults/nymphs, 48 hours, percent in solution

## CC(C)C(=Nc1cc(F)cc(F)c1)OCc1cccc(Oc2ccc(F)cc2)c1 [Compound 199]
[1]
  LC50 TBW E: > 0.1%
[2]
  LC50 CL: 0.0006%
[3]
  LC50 HF: 8 µg
[4]
  LC50 MW: > 0.01%
[5]
  LC50 TBW C: 0.003%

## Cc1ccc(F)cc1N=C(OCc1cccc(Oc2ccccc2)c1)C(C)C [Compound 74]
[1]
  LC50 TBW E: 0.025%
[2]
  LC50 CL: 0.005%
[3]
  LC50 HF: 25 µg
[5]
  LC50 TBW C: 0.0025%

## Cc1cc(Cl)ccc1N=C(OCc1cccc(Oc2ccccc2)c1)C(C)C [Compound 96]
[1]
  LC50 TBW E: 0.025%
[2]
  LC50 CL: 0.003%
[3]
  LC50 HF: 35 µg
[5]
  LC50 TBW C: 0.0025%

## COc1ccc(N=C(OCc2cccc(Oc3ccccc3)c2)C(C)C)cc1Cl [Compound 95]
[1]
  LC50 TBW E: 0.025%
[2]
  LC50 CL: 0.0025%
[3]
  LC50 HF: 10 µg
[5]
  LC50 TBW C: 0.004%

## CC(C)C(=Nc1ccc(Cl)c(Cl)c1)OCc1cccc(Oc2ccc(Cl)cc2)n1 [Compound 523]
[1]
  LC50 TBW E: > 0.1%
[2]
  LC50 CL: 0.00015%
[3]
  LC50 HF: 22 µg
[6]
  LC50 LH: > 0.05%
[4]
  LC50 MW: > 0.01%
[5]
  LC50 TBW C: 0.0002%

## CC(C)(C)c1ccc(N=C(OCc2cccc(Oc3ccccc3)c2)C(Cl)Cl)cc1 [Compound 140]
[1]
  LC50 TBW E: > 0.1%
[2]
  LC50 CL: < 0.1%
[3]
  LC50 HF: > 100 µg
[5]
  LC50 TBW C: > 0.1%

## CCOc1ccc(N=C(OCc2cccc(Oc3ccccc3)c2)C(Cl)Cl)cc1 [Compound 138]
[1]
  LC50 TBW E: 0.08%
[2]
  LC50 CL: 0.005%
[3]
  LC50 HF: 19 µg
[6]
  LC50 LH: > 0.05%
[4]
  LC50 MW: > 0.01%
[5]
  LC50 TBW C: 0.015%

## CC(C)C(=Nc1ccc(F)c(C(F)(F)F)c1)OCc1cccc(Oc2ccc(F)cc2)c1 [Compound 120]
[1]
  LC50 TBW E: 0.04%
[2]
  LC50 CL: 0.00015%
[3]
  LC50 HF: 14 µg
[6]
  LC50 LH: 0.0003%
[4]
  LC50 MW: > 0.01%
[5]
  LC50 TBW C: 0.0025%

## CC(=O)c1ccc(N=C(OCc2cccc(Oc3ccccc3)c2)C(C)C)cc1 [Compound 147]
[1]
  LC50 TBW E: > 0.1%
[2]
  LC50 CL: 0.01%
[3]
  LC50 HF: 10 µg
[5]
  LC50 TBW C: 0.0075%

## Fc1ccc(N=C(OCc2cccc(Oc3ccccc3)c2)C(Cl)Cl)cc1 [Compound 44]
[1]
  LC50 TBW E: 0.06%
[3]
  LC50 HF: 3 µg
[5]
  LC50 TBW C: < 0.1%

## COc1ccc(N=C(OCc2cccc(Oc3ccccc3)c2)C(C)C)c(OC)c1 [Compound 146]
[1]
  LC50 TBW E: > 0.1%
[2]
  LC50 CL: 0.017%
[3]
  LC50 HF: 40 µg
[5]
  LC50 TBW C: 0.025%

## CC(C)C(=Nc1ccc(I)cc1)OCc1cccc(Oc2ccc(F)cc2)c1 [Compound 234]
[1]
  LC50 TBW E: 0.09%
[2]
  LC50 CL: 0.00045%
[3]
  LC50 HF: 38 µg
[6]
  LC50 LH: 0.003%
[4]
  LC50 MW: > 0.01%
[5]
  LC50 TBW C: 0.0013%

## Cc1ccc(N=C(OCc2cccc(Oc3ccccc3)c2)C(C)C)cc1F [Compound 75]
[1]
  LC50 TBW E: 0.01%
[2]
  LC50 CL: 0.0025%
[3]
  LC50 HF: 5 µg
[6]
  LC50 LH: 0.0008%
[5]
  LC50 TBW C: 0.0075%

## CC(C)C(=Nc1cccc(C(F)(F)F)c1)OCc1ccc(F)c(Oc2ccc(Cl)cc2)c1 [Compound 266]
[1]
  LC50 TBW E: 0.06%
[2]
  LC50 CL: 0.00016%
[3]
  LC50 HF: 10 µg
[5]
  LC50 TBW C: 0.0007%

## CC(C)C(=Nc1ccc(F)c(Br)c1)OCc1cccc(Oc2ccc(F)cc2)c1 [Compound 253]
[1]
  LC50 TBW E: > 0.1%
[2]
  LC50 CL: 0.00013%
[3]
  LC50 HF: 10 µg
[6]
  LC50 LH: 0.003%
[4]
  LC50 MW: > 0.01%
[5]
  LC50 TBW C: 0.0005%

## CC(C)C(=Nc1ccc2c(c1)OC(C)(C)O2)OCc1cccc(Oc2ccc(F)cc2)c1 [Compound 219]
[1]
  LC50 TBW E: 0.027%
[2]
  LC50 CL: 0.00025%
[3]
  LC50 HF: 50 µg
[4]
  LC50 MW: > 0.01%
[5]
  LC50 TBW C: 0.004%

## CC(C)C(=Nc1ccc(F)cc1F)OCc1cccc(Oc2ccc(F)cc2)c1 [Compound 209]
[1]
  LC50 TBW E: 0.1%
[2]
  LC50 CL: 0.0007%
[3]
  LC50 HF: 17 µg
[6]
  LC50 LH: 0.001%
[4]
  LC50 MW: > 0.01%
[5]
  LC50 TBW C: 0.005%

## CC(C)C(=Nc1ccc(F)c(Cl)c1)OCc1cccc(Oc2ccc(C#N)cc2)c1 [Compound 196]
[1]
  LC50 TBW E: > 0.1%
[2]
  LC50 CL: 0.0006%
[3]
  LC50 HF: 17 µg
[6]
  LC50 LH: > 0.05%
[4]
  LC50 MW: > 0.01%
[5]
  LC50 TBW C: 0.001%

## CC(C)C(=Nc1ccc(F)c(C(F)(F)F)c1)OCc1ccc(F)c(Oc2ccc(Cl)cc2)c1 [Compound 297]
[1]
  LC50 TBW E: 0.025%
[2]
  LC50 CL: 0.00027%
[3]
  LC50 HF: 23 µg
[6]
  LC50 LH: 0.0001%
[4]
  LC50 MW: 0.0071%
[5]
  LC50 TBW C: 0.00075%

## CC(C)C(=Nc1cccc(Cl)c1)OCc1cccc(Oc2ccc(F)cc2)c1 [Compound 194]
[1]
  LC50 TBW E: 0.04%
[2]
  LC50 CL: 0.0005%
[3]
  LC50 HF: 10 µg
[6]
  LC50 LH: 0.0005%
[4]
  LC50 MW: > 0.01%
[5]
  LC50 TBW C: 0.0017%

## CC(C)C(=Nc1ccc(Br)cc1)OCc1cccc(Oc2ccc(F)cc2)c1 [Compound 226]
[1]
  LC50 TBW E: 0.1%
[2]
  LC50 CL: 0.0005%
[3]
  LC50 HF: 16 µg
[6]
  LC50 LH: 0.002%
[4]
  LC50 MW: 0.009%
[5]
  LC50 TBW C: 0.001%

## CC(C)C(=Nc1ccc(F)c(Cl)c1)OCc1cccc(Oc2ccccc2)n1 [Compound 462]
[1]
  LC50 TBW E: 0.04%
[2]
  LC50 CL: 0.001%
[3]
  LC50 HF: 7 µg
[6]
  LC50 LH: 0.001%
[4]
  LC50 MW: > 0.05%
[5]
  LC50 TBW C: 0.0025%

## COc1ccccc1N=C(OCc1cccc(Oc2ccccc2)c1)C(C)C [Compound 145]
[1]
  LC50 TBW E: > 0.1%
[2]
  LC50 CL: 0.05%
[3]
  LC50 HF: > 100 µg
[6]
  LC50 LH: > 0.05%
[5]
  LC50 TBW C: 0.05%

## CC(C)C(=Nc1ccc(F)c(Cl)c1)OCc1cccc(Oc2ccc(Br)cc2)c1 [Compound 238]
[1]
  LC50 TBW E: 0.05%
[2]
  LC50 CL: 0.0002%
[3]
  LC50 HF: 25 µg
[6]
  LC50 LH: > 0.05%
[4]
  LC50 MW: > 0.01%
[5]
  LC50 TBW C: 0.0004%

## CC(C)C(=Nc1c(F)c(F)c(F)c(F)c1F)OCc1cccc(Oc2ccccc2)c1 [Compound 51]
[1]
  LC50 TBW E: 0.067%
[2]
  LC50 CL: 0.001%
[3]
  LC50 HF: 25 µg
[6]
  LC50 LH: 0.001%
[5]
  LC50 TBW C: 0.0025%

## CC(C)C(=Nc1cccc(C(F)(F)F)c1)OCc1cccc(Oc2ccc(F)cc2)c1 [Compound 202]
[1]
  LC50 TBW E: > 0.1%
[2]
  LC50 CL: 0.00024%
[3]
  LC50 HF: 18 µg
[6]
  LC50 LH: 0.0003%
[4]
  LC50 MW: > 0.01%
[5]
  LC50 TBW C: 0.0007%

## C=C(C)C(=Nc1ccc(C(F)(F)F)cc1)OCc1ccc(F)c(Oc2ccc(Cl)cc2)c1 [Compound 432]
[1]
  LC50 TBW E: 0.032%
[2]
  LC50 CL: 0.0012%
[3]
  LC50 HF: < 100 µg
[4]
  LC50 MW: > 0.01%
[5]
  LC50 TBW C: < 0.1%

## CC(C)(C)C(=Nc1ccc(F)c(Cl)c1)OCc1cccc(Oc2ccc(F)cc2)c1 [Compound 204]
[1]
  LC50 TBW E: > 0.1%
[2]
  LC50 CL: 0.0023%
[3]
  LC50 HF: > 100 µg
[4]
  LC50 MW: > 0.01%
[5]
  LC50 TBW C: 0.004%

## Cc1c(F)cccc1N=C(OCc1cccc(Oc2ccccc2)c1)C(C)C [Compound 73]
[1]
  LC50 TBW E: 0.025%
[2]
  LC50 CL: 0.004%
[3]
  LC50 HF: 25 µg
[5]
  LC50 TBW C: 0.005%

## ClC(Cl)C(=Nc1ccccc1)OCc1cccc(Oc2ccccc2)c1 [Compound 41]
[1]
  LC50 TBW E: 0.04%
[2]
  LC50 CL: 0.015%
[3]
  LC50 HF: 4.5 µg
[5]
  LC50 TBW C: 0.0035%

## Cc1ccc(N=C(OCc2cccc(Oc3ccccc3)c2)C(C)C)cc1 [Compound 156]
[1]
  LC50 TBW E: 0.05%
[2]
  LC50 CL: 0.004%
[3]
  LC50 HF: 10 µg
[6]
  LC50 LH: > 0.05%
[4]
  LC50 MW: > 0.01%

## CC(C)C(=Nc1ccc(Cl)c(Cl)c1)OCc1cccc(Nc2ccc(F)cc2)c1 [Compound 514]
[1]
  LC50 TBW E: > 0.1%
[2]
  LC50 CL: 0.008%
[3]
  LC50 HF: > 100 µg
[6]
  LC50 LH: > 0.05%
[4]
  LC50 MW: > 0.01%

## CC(C)C(=Nc1ccc(F)c(Cl)c1)OCc1ccc(OCc2ccccc2)cc1 [Compound 475]
[1]
  LC50 TBW E: > 0.1%
[2]
  LC50 CL: 0.008%
[3]
  LC50 HF: > 100 µg
[6]
  LC50 LH: > 0.05%
[4]
  LC50 MW: > 0.01%

## CCC(C)C(=Nc1ccc(F)c(Cl)c1)OCc1cccc(Oc2ccc(F)cc2)c1 (stereo not drawn) [Compound 210]
[1]
  LC50 TBW E: 0.045%
[2]
  LC50 CL: 0.00028%
[3]
  LC50 HF: 35 µg
[4]
  LC50 MW: > 0.01%
[5]
  LC50 TBW C: 0.0015%

## CC(C)C(=Nc1ccc2c(c1)OCO2)OCc1cc(Oc2ccc(F)cc2)ccn1 [Compound 515]
[1]
  LC50 TBW E: > 0.1%
[2]
  LC50 CL: 0.0015%
[3]
  LC50 HF: 28 µg
[6]
  LC50 LH: > 0.05%
[4]
  LC50 MW: > 0.01%

From patent US5089623A, “Certain imidate insecticides” (Imperial Chemical Industries Plc, priority 1990, dated 1992)
